Test results published in patent US12570666B2, “Furoindazole derivatives” (Bayer Aktiengesellschaft, priority 2019, dated 2026).

Target: T1, human GPR84 receptor (Homo sapiens, UniProt Q9NQS5)
T1 construct: frozen aliquots prepared by acCELLerate; host or cells: CHO-K1
Experiment: cAMP HTRF assay for identification of cellular GPR84 antagonists
Type: cell-based
Settings: CHO-K1 cells stably expressing human GPR84; Forskolin + agonist 6-OAU (EC80); average or median values
How it was run: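 Forskolin-stimulated CHO-K1 cells stably expressing human GPR84, agonist-suppressed cAMP measured by HTRF (665/620 ratio) after lysis. Compounds at 11 concentrations, 20 μM to 0.07 nM, duplicate; normalized to DMSO and no-agonist controls; IC50 by 4-parameter fit.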

T1 sequence (Q9NQS5 whole entry): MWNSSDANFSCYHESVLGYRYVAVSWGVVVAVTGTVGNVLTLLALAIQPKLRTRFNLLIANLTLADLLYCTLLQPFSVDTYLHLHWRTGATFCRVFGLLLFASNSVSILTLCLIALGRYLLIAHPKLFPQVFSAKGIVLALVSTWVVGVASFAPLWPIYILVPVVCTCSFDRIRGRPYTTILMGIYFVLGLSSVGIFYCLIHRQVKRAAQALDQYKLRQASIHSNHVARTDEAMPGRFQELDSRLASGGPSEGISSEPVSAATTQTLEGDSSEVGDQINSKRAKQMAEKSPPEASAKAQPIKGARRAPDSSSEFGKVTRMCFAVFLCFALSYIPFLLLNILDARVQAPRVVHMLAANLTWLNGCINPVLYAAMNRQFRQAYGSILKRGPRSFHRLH

SMILES	IC50
Cc1ccc(Cn2cc3c(n2)-c2c(oc(C(=O)NC[C@@H]4CCCO4)c2C)CC3)nc1 [Example 64, 8-methyl-2-[(5-methylpyridin-2-yl)methyl]-N-[(2S)-tetrahydrofuran-2-ylmethyl]-4,5-dihydro-2H-furo[2,3-g]indazole-7-carboxamide]	28 nM
Cc1ccc(Cn2cc3c(n2)-c2c(oc(C(=O)NC[C@@H]4COCCO4)c2C)CC3)nc1 [Example 65, N-[(2R)-1,4-dioxan-2-ylmethyl]-8-methyl-2-[(5-methylpyridin-2-yl)methyl]-4,5-dihydro-2H-furo[2,3-g]indazole-7-carboxamide]	26 nM
Cc1cccc(Cn2cc3c(n2)-c2c(oc(C(=O)NCCN4CCC4)c2C)CC3)n1 [Example 67, N-[2-(azetidin-1-yl)ethyl]-8-methyl-2-[(6-methylpyridin-2-yl)methyl]-4,5-dihydro-2H-furo[2,3-g]indazole-7-carboxamide]	1810 nM
Cc1cccc(Cn2cc3c(n2)-c2c(oc(C(=O)NCc4cc(C5CC5)on4)c2C)CC3)n1 [Example 68, N-[(5-cyclopropyl-1,2-oxazol-3-yl)methyl]-8-methyl-2-[(6-methylpyridin-2-yl)methyl]-4,5-dihydro-2H-furo[2,3-g]indazole-7-carboxamide]	170 nM
Cc1cccc(Cn2cc3c(n2)-c2c(oc(C(=O)NCCN4CCCC4)c2C)CC3)n1 [Example 69, 8-methyl-2-[(6-methylpyridin-2-yl)methyl]-N-[2-(pyrrolidin-1-yl)ethyl]-4,5-dihydro-2H-furo[2,3-g]indazole-7-carboxamide]	750 nM
Cc1cccc(Cn2cc3c(n2)-c2c(oc(C(=O)NCc4ccn(C)n4)c2C)CC3)n1 [Example 71, 8-methyl-N-[(1-methyl-1H-pyrazol-3-yl)methyl]-2-[(6-methylpyridin-2-yl)methyl]-4,5-dihydro-2H-furo[2,3-g]indazole-7-carboxamide]	360 nM
Cc1cccc(Cn2cc3c(n2)-c2c(oc(C(=O)NCc4ncco4)c2C)CC3)n1 [Example 72, 8-methyl-2-[(6-methylpyridin-2-yl)methyl]-N-(1,3-oxazol-2-ylmethyl)-4,5-dihydro-2H-furo[2,3-g]indazole-7-carboxamide]	240 nM
Cc1ncccc1Cn1cc2c(n1)-c1c(oc(C(=O)NC[C@@H]3CCCO3)c1C)CC2 [Example 73, 8-methyl-2-[(2-methylpyridin-3-yl)methyl]-N-[(2S)-tetrahydrofuran-2-ylmethyl]-4,5-dihydro-2H-furo[2,3-g]indazole-7-carboxamide]	140 nM
Cc1ncccc1Cn1cc2c(n1)-c1c(oc(C(=O)NC[C@@H]3COCCO3)c1C)CC2 [Example 74, N-[(2R)-1,4-dioxan-2-ylmethyl]-8-methyl-2-[(2-methylpyridin-3-yl)methyl]-4,5-dihydro-2H-furo[2,3-g]indazole-7-carboxamide]	160 nM
Cc1ccc(Cn2cc3c(n2)-c2c(oc(C(=O)NC[C@@H]4CCCO4)c2C)CC3)cn1 [Example 75, 8-methyl-2-[(6-methylpyridin-3-yl)methyl]-N-[(2S)-tetrahydrofuran-2-ylmethyl]-4,5-dihydro-2H-furo[2,3-g]indazole-7-carboxamide]	60 nM
Cc1ccc(Cn2cc3c(n2)-c2c(oc(C(=O)NC[C@@H]4COCCO4)c2C)CC3)cn1 [Example 76, N-[(2R)-1,4-dioxan-2-ylmethyl]-8-methyl-2-[(6-methylpyridin-3-yl)methyl]-4,5-dihydro-2H-furo[2,3-g]indazole-7-carboxamide]	65 nM
Cc1ccc(Cn2cc3c(n2)-c2c(oc(C(=O)NC[C@@H]4CCCO4)c2C)CC3)c(C)n1 [Example 77, 2-[(2,6-dimethylpyridin-3-yl)methyl]-8-methyl-N-[(2S)-tetrahydrofuran-2-ylmethyl]-4,5-dihydro-2H-furo[2,3-g]indazole-7-carboxamide]	170 nM
Cc1ccc(Cn2cc3c(n2)-c2c(oc(C(=O)NC[C@@H]4COCCO4)c2C)CC3)c(C)n1 [Example 78, 2-[(2,6-dimethylpyridin-3-yl)methyl]-N-[(2R)-1,4-dioxan-2-ylmethyl]-8-methyl-4,5-dihydro-2H-furo[2,3-g]indazole-7-carboxamide]	190 nM
Cc1cc(Cn2cc3c(n2)-c2c(oc(C(=O)NC[C@@H]4CCCO4)c2C)CC3)ccn1 [Example 79, 8-methyl-2-[(2-methylpyridin-4-yl)methyl]-N-[(2S)-tetrahydrofuran-2-ylmethyl]-4,5-dihydro-2H-furo[2,3-g]indazole-7-carboxamide]	58 nM
Cc1cc(Cn2cc3c(n2)-c2c(oc(C(=O)NC[C@@H]4COCCO4)c2C)CC3)ccn1 [Example 80, N-[(2R)-1,4-dioxan-2ylmethyl]-8-methyl-2-[(2-methylpyridin-4-yl)methyl]-4,5-dihydro-2H-furo[2,3-g]indazole-7-carboxamide]	57 nM
Cc1cc(Cn2cc3c(n2)-c2c(oc(C(=O)NC[C@@H]4CCCO4)c2C)CC3)cc(C)n1 [Example 81, 2-[(2,6-dimethylpyridin-4-yl)methyl]-8-methyl-N-[(2S)-tetrahydrofuran-2-ylmethyl]-4,5-dihydro-2H-furo[2,3-g]indazole-7-carboxamide]	380 nM
Cc1cc(Cn2cc3c(n2)-c2c(oc(C(=O)NC[C@@H]4COCCO4)c2C)CC3)cc(C)n1 [Example 82, 2-[(2,6-dimethylpyridin-4-yl)methyl]-N-[(2R)-1,4-dioxan-2-ylmethyl]-8-methyl-4,5-dihydro-2H-furo[2,3-g]indazole-7-carboxamide]	440 nM
Cc1c(C(=O)NC[C@@H]2CCCO2)oc2c1-c1nn(Cc3ncccn3)cc1CC2 [Example 83, 8-methyl-2-(pyrimidin-2-ylmethyl)-N-[(2S)-tetrahydrofuran-2-ylmethyl]-4,5-dihydro-2H-furo[2,3-g]indazole-7-carboxamide]	180 nM
Cc1c(C(=O)NC[C@@H]2COCCO2)oc2c1-c1nn(Cc3ncccn3)cc1CC2 [Example 84, N-[(2R)-1,4-dioxan-2-ylmethyl]-8-methyl-2-(pyrimidin-2-ylmethyl)-4,5-dihydro-2H-furo[2,3-g]indazole-7-carboxamide]	180 nM
Cc1c(C(=O)NC[C@@H]2CCCO2)oc2c1-c1nn(Cc3cncnc3)cc1CC2 [Example 85, 8-methyl-2-(pyrimidin-5-ylmethyl)-N-[(2S)-tetrahydrofuran-2-ylmethyl]-4,5-dihydro-2H-furo[2,3-g]indazole-7-carboxamide]	260 nM
Cc1c(C(=O)NC[C@@H]2COCCO2)oc2c1-c1nn(Cc3cncnc3)cc1CC2 [Example 86, N-[(2R)-1,4-dioxan-2-ylmethyl]-8-methyl-2-(pyrimidin-5-ylmethyl)-4,5-dihydro-2H-furo[2,3-g]indazole-7-carboxamide]	180 nM
Cc1c(C(=O)NC[C@@H]2CCCO2)oc2c1-c1nn(C[C@@H]3COCCO3)cc1CC2 [Example 87, 2-[(2R)-1,4-dioxan-2-ylmethyl]-8-methyl-N-[(2S)-tetrahydrofuran-2-ylmethyl]-4,5-dihydro-2H-furo[2,3-g]indazole-7-carboxamide]	200 nM
Cc1c(C(=O)NC[C@@H]2COCCO2)oc2c1-c1nn(C[C@@H]3COCCO3)cc1CC2 [Example 88, N,2-bis[(2R)-1,4-dioxan-2-ylmethyl]-8-methyl-4,5-dihydro-2H-furo[2,3-g]indazole-7-carboxamide]	110 nM
